# According to patent US8628938B2, “Polynucleotide encoding UDP-glucuronyl transferase” (Suntory Holdings Limited, priority 2007, dated 2014):
# Tests used:
# Conditions in all cases: for relative activity to each substrate, taking the activity to scutellarein as 100%: 100 μM glycosyl acceptor substrate, 2 mM UDP-glucuronic acid, pH 7.5, 30° C., 30 minutes; for glucuronosyl transfer activity to glycosyl acceptor substrate (in words): standard reaction conditions
# [1] = test system: PfUGT50; experiment: UDP-glucuronosyltransferase activity assay (HPLC) with recombinant PfUGT50; format: biochemical, Perilla frutescens
# Method: (§1) Escherichia coli BL21 (DE3) was transformed with each plasmid obtained in 4-(1) above. The transformant obtained was shake cultured overnight at 37° C. in 4 ml of LB medium (10 g/l tryptone, 5 g/l yeast extract, 1 g/l NaCl) supplemented with 50 μg/ml of ampicillin. The culture broth, 4 ml, which reached the stationary phase, was inoculated into 80 ml of the medium with the same composition, followed by shake culture at 37° C. When the cell turbidity (OD600) reached approximately 0.5, 0.4 mM IPTG (isopropyl-β-thiogalactopyranoside) in a final concentration was added to the medium, followed by shake culture at 22° C. for 20 hours. All of the subsequent procedures were performed at 4° C. The transformants cultured were centrifuged (7,000×g, 15 mins.) to collect the cells, and 2 ml/g cell of Buffer S (20 mM sodium phosphate buffer (pH 7.4), 20 mM imidazole, 0.5 M NaCl, 14 mM β-mercaptoethanol) was added to the cells for suspension. Subsequently, ultrasonication was performed (15 secs.×8) followed by centrifugation (15,000×g, 10 mins.). To the supernatant obtained, 0.12% (w/v) polyethyleneimine in a final concentration was added to […], which was then allowed to stand for 30 minutes. The mixture was centrifuged (15,000×g, 10 mins.) and the supernatant was recovered as a crude enzyme solution. The crude enzyme solution was applied to His SpinTrap (GE Healthcare), which had been equilibrated with Buffer S, and centrifuged (70×g, 30 secs.). After washing with 600 μl of Buffer S, the protein bound to the column was stepwise eluted with 600 μl each of Buffer S containing 100, 200 and 500 mM imidazole. The buffer in each fraction eluted was replaced by 20 mM potassium phosphate buffer (pH 7.5) containing 14 mM β-mercaptoethanol, using Microcon YM-30 (Amicon). […] These fractions were mixed and used for analysis.
# (§2) Standard reaction conditions are as follows. A reaction solution (2 mM UDP-glucuronic acid, 100 μM glycosyl acceptor substrate, 50 mM potassium phosphate buffer (pH 7.5), enzyme solution), 50 μl, was prepared and the enzyme solution was added to initiate the reaction at 30° C. for 30 minutes. The reaction was stopped by adding 50 μl of 0.5% TFA in CH3CN and provided for HPLC analysis. The conditions for HPLC are as follows: column, Develosil C30-UG-5 (4.6×150 mm); eluant A, 0.1% TFA/H2O; eluant B, 0.08% TFA/90% CH3CN; conditions A for elution (except for aurone, catechin, coumarine and phenylpropanoid), 0 min/5% B→18 min/100% eluant B'18.1 min/5% B→25 min/5% B; conditions B for elution (aurone, catechin, coumarine and phenylpropanoid), 0 min/5% B→20 min/50% eluant B→20.5 min/5% B→25 min/5% B; flow rate, 1 ml/min; detection wavelength: 280 and 350 nm.
# [2] = test system: S1UGT; experiment: UDP-glucuronosyltransferase activity assay (HPLC) with recombinant S1UGT; format: biochemical, Scutellaria laeteviolacea v. yakusimensis
# Method: as §1, §2
# [3] = test system: AmUGTcg10; experiment: UDP-glucuronosyltransferase activity assay (HPLC) with recombinant AmUGTcg10; format: biochemical, Antirrhinum majus
# Method: as §1, §2
# [4] = test system: SiUGT23; experiment: UDP-glucuronosyltransferase activity assay (HPLC) with recombinant SiUGT23; format: biochemical, Sesamum indicum
# Method: as §2
# cDNA containing full-length ORF of SiUGT23 derived from Sesamum indicum was amplified by a gene-specific primer set (SEQ ID NOs: 24 and 25). cDNA synthesized using total RNA extracted from sesame seeds was used as a template. SiUGT23 was incorporated into Escherichia coli expression vector as in UGT of Perilla frutescens, Scutellaria laeteviolacea v. yakusimensis and Antirrhinum majus in EXAMPLE 1 and recombinant SiUGT23 protein was expressed in the same way to assay the enzyme activity.
# [5] = apigenin as glycosyl acceptor substrate
Compound,"relative activity to each substrate, taking the activity to scutellarein as 100% [1]","relative activity to each substrate, taking the activity to scutellarein as 100% [2]","relative activity to each substrate, taking the activity to scutellarein as 100% [4]",glucuronosyl transfer activity to glycosyl acceptor substrate (in words) [2],glucuronosyl transfer activity to glycosyl acceptor substrate (in words) [1],glucuronosyl transfer activity to glycosyl acceptor substrate (in words) [4],glucuronosyl transfer activity to glycosyl acceptor substrate (in words) [3],other results
O=C(O)[C@H]1O[C@H](OP(=O)(O)OP(=O)(O)OC[C@H]2O[C@@H](n3ccc(=O)[nH]c3=O)[C@H](O)[C@@H]2O)[C@H](O)[C@@H](O)[C@@H]1O [UDP-glucuronic acid],–,–,–,–,–,–,–,"activity to UDP-activated glycosyl donor [1, 5]: showed the activity; activity to UDP-activated glycosyl donor [2, 5]: showed the activity; activity to UDP-activated glycosyl donor [3, 5]: showed the activity"
"Oc1ccc(C2OCC3C(c4ccc(O)c(O)c4)OCC23)cc1O (single isomer, unassigned; (+)) [EC2, (+)-episesamin catechol 2]",–,–,–,shows the activity,–,–,–,–
O=C1/C(=C/c2ccc(O)c(O)c2)Oc2cc(O)cc(O)c21 [aureusidin],40%,–,13%,no activity,–,–,–,"relative activity to each substrate, taking the activity to scutellarein as 100% [3]: 2%"
O=C(O)/C=C/c1ccc(O)c(O)c1 [caffeic acid],–,–,–,–,–,no activity,–,–
O=c1c(-c2ccc(O)cc2)coc2cc(O)ccc12 [daidzein],–,0.3%,–,–,no activity,no activity,no activity,–
COc1cc(-c2cc(=O)c3c(O)cc(O)cc3o2)ccc1O [chrysoeriol],18%,0.02%,6%,–,–,–,–,"relative activity to each substrate, taking the activity to scutellarein as 100% [3]: 18%"
"Oc1ccc([C@H]2OC[C@H]3[C@@H]2CO[C@@H]3c2ccc3c(c2)OCO3)cc1O [SC1, (+)-sesamin catechol 1]",–,–,–,shows the activity,shows the activity,–,–,–
catechin,–,–,–,no activity,no activity,no activity,no activity,–
"Oc1ccc([C@H]2OC[C@H]3[C@@H]2CO[C@@H]3c2ccc(O)c(O)c2)cc1O [SC2, (+)-sesamin catechol 2]",–,–,–,shows the activity,–,–,–,–
COc1cc(/C=C/CO)ccc1O [coniferyl alcohol],–,–,–,no activity,no activity,–,no activity,–

# More lines, main results first:
"relative activity to each substrate, taking the activity to scutellarein as 100% [1]","relative activity to each substrate, taking the activity to scutellarein as 100% [2]","relative activity to each substrate, taking the activity to scutellarein as 100% [4]",glucuronosyl transfer activity to glycosyl acceptor substrate (in words) [2],glucuronosyl transfer activity to glycosyl acceptor substrate (in words) [1],glucuronosyl transfer activity to glycosyl acceptor substrate (in words) [4],glucuronosyl transfer activity to glycosyl acceptor substrate (in words) [3],Compound,other results
3%,6%,2%,–,–,–,–,O=C1C[C@@H](c2ccc(O)cc2)Oc2cc(O)cc(O)c21 [naringenin],"relative activity to each substrate, taking the activity to scutellarein as 100% [3]: 15%"
87.9%,1.1%,14.0%,–,–,–,–,O=c1cc(-c2cc(O)c(O)c(O)c2)oc2cc(O)cc(O)c12 [tricetin],"relative activity to each substrate, taking the activity to scutellarein as 100% [3]: 23.8%"
3%,14%,18%,–,–,–,–,O=c1c(O)c(-c2ccc(O)cc2)oc2cc(O)cc(O)c12 [kaempferol],"relative activity to each substrate, taking the activity to scutellarein as 100% [3]: 28%"
–,–,–,no activity,no activity,no activity,no activity,O=c1cc(-c2ccc(O)c(O)c2)oc2c([C@@H]3O[C@H](CO)[C@@H](O)[C@H](O)[C@H]3O)c(O)cc(O)c12 [orientin],–
–,0.3%,0.03%,–,no activity,–,no activity,O=c1ccc2cc(O)c(O)cc2o1 [esculetin],–
9%,–,–,shows the activity,–,–,–,O=c1c(O)c(-c2cc(O)c(O)c(O)c2)oc2cc(O)cc(O)c12 [myricetin],–
–,–,0.3%,no activity,no activity,–,no activity,O=c1cc(-c2ccc(O)cc2)oc2cc(O)c([C@@H]3O[C@H](CO)[C@@H](O)[C@H](O)[C@H]3O)c(O)c12 [isovitexin],–
–,1%,–,–,no activity,no activity,no activity,O=c1c(-c2ccc(O)cc2)coc2cc(O)cc(O)c12 [genistein],–
62%,0.3%,4%,–,–,–,–,COc1ccc(-c2cc(=O)c3c(O)cc(O)cc3o2)cc1O [diosmetin],"relative activity to each substrate, taking the activity to scutellarein as 100% [3]: 26%"
–,–,–,no activity,no activity,no activity,no activity,O=C(O[C@@H]1Cc2c(O)cc(O)cc2O[C@@H]1c1cc(O)c(O)c(O)c1)c1cc(O)c(O)c(O)c1 [epigallocatechin gallate],–
–,–,–,shows the activity,shows the activity,shows the activity,shows the activity,Oc1ccc(C=Cc2cc(O)cc(O)c2)cc1 [resveratrol],–
